Measured values taken from patent US12644143B2, “Method for the determination of antibiotic susceptibility through stimulated Raman metabolic imaging” (priority 2017, dated 2026).
≈ marks a conversion by molar mass, not a printed value.

What was measured:
Type in all cases: cell-based
[1] = tested on: S. aureus strain susceptible to oxacillin; assay: MIC of oxacillin; conditions: Staphylococcus aureus
[2] = tested on: S. aureus strain susceptible to oxacillin; assay: SRS metabolic imaging of deuterated glucose (C-D peak); conditions: 1.3 μg/ml oxacillin, 0.5 h, glucose-d2 containing medium
Experimental: (§1) The metabolic activity of glucose-d2 can be observed in single bacterium cultivated in glucose-d2 containing medium for 0.5 h by SRS imaging (FIG. 11B). […] Therefore, susceptible and resistant S. aureus can be determined in about 0.5 h.

[3] = tested on: S. aureus strain resistant to oxacillin; assay: as above; conditions: 1.3 μg/ml oxacillin, 0.5 h, glucose-d2 containing medium
Experimental: as §1

[4] = tested on: E. faecalis 31970 (vancomycin susceptible enterococci, VSE); assay: SRS metabolic imaging of glucose-d7 uptake (C-D signal) for AST; conditions: for susceptibility of E. faecalis 31970 based on metabolic imaging method: 20 μg/mL antibiotic; for C-D signal in SRS imaging versus control: E. faecalis 31970, 20 μg/mL antibiotic; for intensity of C-D component versus control: 1 hour
Experimental: (§2) The SRS imaging based method of the present disclosure can determine the susceptibility of bacteria to antibiotics within about […]. A bacteria solution for testing through SRS imaging and placement on the agarose gel pad can be prepared by cultivating bacteria in a broth, such as a Lysogeny broth (LB) (LB Broth, Sigma Aldrich) for about two hours to reach to log phase. The bacteria can then added in a ratio between about 0.1:100 to about a 10:100 ratio to 2 mL of various types of medium. In one exemplary embodiment, the ration can be about 1:100 to 2 ML of medium, such as a specialized medium. Some exemplary embodiments can use D2O medium or other specialized medium herein referred to as M9 medium wherein about a 2% glucose-d7 can be only carbon source. The M9 medium is developed and selected to maximize the signal within the C-D vibrational region. To measure the resistance of a given bacteria to an antibiotic, the antibiotic is added to the specialized medium to a concentration of about 20 μg/mL. After at least about 30 minutes of incubation about 500 μl of the sample is centrifuged, washed twice with purified water, and deposited to an agarose gel pad for imaging. An imaging setup of illustrated in FIG. 1A can be utilized to process the sample.
Referring now to FIG. 2A-D the method of the present disclosure can generally be performed in an exemplary method to determine effectiveness utilizing an antibiotic, such as vancomycin. Accordingly, the method can be utilized to examine the influence of antibiotics to the metabolic uptake of glucose-d7 by bacteria. Vancomycin susceptible (VSE) and Vancomycin resistant (VRE) enterococci E. faecalis can first be grown to a log phase by cultivating in LB medium for about 2 hours, then VSE and VRE can further be cultivated in M9 medium with about 2% glucose-d7 as the sole carbon source, respectively, with the addition of vancomycin to a final concentration of about 20 μg/mL (FIG. 2A). Other embodiments can include various types of carbon source as a sole carbon source or in combination with other carbon or nutrient sources. One exemplary embodiment can use a nutrient source of about 0-100% deuterium dioxide. Similarly, the carbon source can include a combination of deuterium dioxide and glucose-d7. This concentration was chosen because it is between the minimum inhibitory concentrations (MICS) of vancomycin to VSE (MIC is 1 μg/mL) and to VRE (MIC is >100 μg/mL). For control, VSE and VRE were cultivated in glucose-d7 containing medium without the addition of vancomycin (FIG. 2a). After 30 minutes (0.5 hours) to 3 hours incubation, each sample was centrifuged and washed twice in water, and then deposited on an agarose gel pad for SRS imaging.
(§3) To quantify the C-D content of the E. faecalis cells and the response of bacteria to the treatment of antibiotics, multivariate curve resolution (MCR) analysis is applied to retrieve the C-D component from hyperspectral SRS imaging data shown in FIGS. 3A-D. MCR is a bilinear model which decomposes the experimental data matrix that contains spectrum at each pixel into concentration maps and spectra of principle components. With an initial estimated spectrum of each component as the input, MCR is calculated and optimized iteratively using alternating least squares algorithm until convergence is reached. The output of MCR contains the concentration map and spectrum of each component. Referring now to FIG. 3A-D the spectra of glucose-d7, which represented the C-D component, and gel, which represented the background, were used as the input components. After MCR analysis, C-D component can be clearly separated from the background and utilized to quantify the contents of the collected SRS imaging data.
The MIC, defined as the lowest concentration of antibiotic that is able to inhibit the visible growth of bacteria in vitro, can be determined by our metabolic imaging method. […]

[5] = tested on: E. faecalis 31970 (vancomycin susceptible enterococci, VSE); assay: MIC by conventional culture based method
P. aeruginosa [6] = assay: SRS imaging of D2O metabolic activity (C-D signal at 2162 cm-1); conditions: for C-D signal / metabolic activity of D2O in SRS imaging: 10 minutes to 3 hours; for average C-D signal intensity relative to about 65% of control threshold: all time points about 10 minutes to about 3 hours
Experimental: A 70% D2O containing LB medium was provided to cultivate bacteria, and used P. aeruginosa as a model to test whether the D2O metabolic activity in single bacterium can be monitored by SRS microscope. P. aeruginosa was separately cultivated in normal LB and 70% D2O containing LB medium for about 2 hours, and then centrifuged and washed in water to remove the culture medium. […] To image single bacterium, bacteria were further diluted and deposited on an agarose gel pad. […] The results were confirmed by SRS spectrum (FIG. 16C) obtained through temporal tuning of chirped pump and Stokes femtosecond pulses.
A time lapse of D2O metabolic activity can be carried out in single P. aeruginosa with femtosecond SRS imaging. P. aeruginosa was first cultivated in about 70% D2O containing LB medium for up to about 3 hours, at different time points, about 500 μl bacteria were centrifuged, washed and deposited on agarose gel pad for imaging. […] To view individual bacterium more clearly, the images in FIG. 18A were further zoomed in FIG. 18B.
(§4) P. aeruginosa were cultivated in 70% D2O containing LB medium, with the addition of 20 μg/ml gentamicin or cefotaxime to determine the antibiotic effect on the metabolic activity of D2O in bacteria, and wherein it is suitable for use of rapid AST with SRS imaging. The susceptibility of P. aeruginosa were pre-determined to be susceptible to gentamicin and resistant to cefotaxime at this concentration using conventional culture-based microdilution method. […] This filamentary formation may also be observed when P. aeruginosa was treated with other β-lactam antibiotics 10.
The D2O metabolic activity of bacteria can be used to rapid differentiate the antibiotic susceptibility of bacteria and examined using the average C-D signal intensity of bacteria being compared between three groups shown in FIGS. 19C-H, the control without antibiotics treatment (FIG. 18A), treated with gentamicin (FIG. 19A), and treated with cefotaxime (FIG. 19B). […] Therefore, the susceptibility of P. aeruginosa to gentamicin and cefotaxime can be determined in as short as about 10 minutes.
The SRS metabolic imaging method can determine the minimal inhibitory concentration (MIC) of antibiotics to bacteria and was done by cultivating P. aeruginosa in about 70% D2O containing LB medium for about 1 hour with the addition of gentamicin with serial diluted concentration. […] With the 65% intensity threshold, the MIC was determined to be about 8 μg/ml with SRS-based D2O metabolic imaging method, which is consistent to the result determined by the conventional culture-based method.

P. aeruginosa [7] = assay: conventional culture-based microdilution method; conditions: 20 μg/ml
Experimental: as §4

P. aeruginosa [8] = tested on: P. aeruginosa
Experimental: (§5) The toxicity of D2O was first tested on bacteria by measuring the growth in a D2O containing medium. Three types of bacteria (E. coli, S. aureus, and P. aeruginosa) were cultured at different concentrated D2O containing LB medium, and their growth were monitored with optical density (OD) measurement at about 600 nm.

E. coli = tested on: E. coli
Experimental: as §5

S. aureus = tested on: S. aureus
Experimental: as §5

[9] = tested on: vancomycin resistant (VRE) enterococci E. faecalis; assay: MIC by conventional culture based method; conditions: Enterococcus
[10] = tested on: vancomycin resistant (VRE) enterococci E. faecalis; assay: SRS metabolic imaging of glucose-d7 uptake (C-D signal) for AST; conditions: for intensity of C-D component after MCR versus control: 20 μg/ml
Experimental: as §2, with “sample. […]” for “sample.”
as §3, with “The output of MCR contains the concentration map and spectrum of each component. Referring now to FIG. 3A-D the spectra of glucose-d7, which represented the C-D component, and gel, which represented the background, were used as the input components.” left out, “data. […]” for “data.”

[11] = Enterococcus faecalis, conventional culture based method, E. faecalis 31970 (VSE), read-out: MIC

Compound: Cc1onc(-c2ccccc2)c1C(=O)N[C@@H]1C(=O)N2[C@@H]1SC(C)(C)[C@@H]2C(=O)O [oxacillin]
- MIC [1]: 0.0625 µg/mL
- C-D peak versus untreated control [2]: reduction in C-D peak
- C-D peak versus untreated control [3]: no significant change

Compound: CC[C@H]1OC(=O)[C@H](C)[C@@H](O[C@H]2C[C@@](C)(OC)[C@@H](O)[C@H](C)O2)[C@H](C)[C@@H](O[C@@H]2O[C@H](C)C[C@H](N(C)C)[C@H]2O)[C@](C)(O)C[C@@H](C)C(=O)[C@H](C)[C@@H](O)[C@]1(C)O [erythromycin]
- susceptibility of E. faecalis 31970 based on metabolic imaging method ([4]; 1 h): resistant
- MIC [5, 11]: > 256 µg/mL

Compound: gentamycin
- C-D signal / metabolic activity of D2O in SRS imaging (P. aeruginosa [6]; 20 μg/ml, 70% D2O LB medium): significantly reduced
- average C-D signal intensity relative to about 65% of control threshold (P. aeruginosa [6]; 20 μg/ml): always below the threshold
- gentamicin concentration at which D2O metabolic activity was inhibited (P. aeruginosa [6]; about 1 hour, 70% D2O LB medium): ≥ 8 µg/mL
- MIC with SRS-based D2O metabolic imaging method (P. aeruginosa [6]; about 1 hour, 70% D2O LB medium, 65% intensity threshold): about 8 μg/ml
- susceptibility of E. faecalis 31970 based on metabolic imaging method ([4]; 1 h): resistant
- susceptibility of P. aeruginosa pre-determined by microdilution (P. aeruginosa [7]): susceptible
- MIC ([5]; conventional culture based method, E. faecalis 31970 (VSE)): >256 µg/mL

Compound: CCCCCCCCCC(=O)N[C@@H](Cc1c[nH]c2ccccc12)C(=O)N[C@H](CC(N)=O)C(=O)N[C@@H](CC(=O)O)C(=O)N[C@@H]1C(=O)NCC(=O)N[C@@H](CCCN)C(=O)N[C@@H](CC(=O)O)C(=O)N[C@H](C)C(=O)N[C@@H](CC(=O)O)C(=O)NCC(=O)N[C@H](CO)C(=O)N[C@@H]([C@H](C)CC(=O)O)C(=O)N[C@@H](CC(=O)c2ccccc2N)C(=O)O[C@@H]1C [daptomycin]
- susceptibility of E. faecalis 31970 based on metabolic imaging method ([4]; 1 h): resistant
- MIC [5, 11]: 32 µg/mL (≈ 19.7 µM)

Compound: CO/N=C(\C(=O)N[C@@H]1C(=O)N2C(C(=O)O)=C(COC(C)=O)CS[C@H]12)c1csc(N)n1 [cefotaxime]
- bacterial morphology on cultivation with antibiotic (P. aeruginosa [6]; 20 μg/ml, 70% D2O LB medium): tends to form long rods
- C-D signal / metabolic activity of D2O in SRS imaging (P. aeruginosa [6]; 20 μg/ml, 70% D2O LB medium): active metabolic activity of D2O
- average C-D signal intensity relative to about 65% of control threshold (P. aeruginosa [6]; 20 μg/ml): always above the threshold
- susceptibility of P. aeruginosa pre-determined by microdilution (P. aeruginosa [7]): resistant

Compound: [2H]O[2H] [D2O]
- growth of P. aeruginosa (P. aeruginosa [8]): initially slowed down
- toxicity to growth (E. coli): did not show significant toxicity
- toxicity to growth (S. aureus): did not show significant toxicity

Compound: CC(=O)NC[C@H]1CN(c2ccc(N3CCOCC3)c(F)c2)C(=O)O1 [linezolid]
- susceptibility of E. faecalis 31970 based on metabolic imaging method ([4]; 1 h): susceptible
- C-D signal in SRS imaging versus control ([4]; 1 h): significant reduction
- MIC [5, 11]: 2 µg/mL (≈ 5.93 µM)

Compound: CN[C@H](CC(C)C)C(=O)N[C@H]1C(=O)N[C@@H](CC(N)=O)C(=O)N[C@H]2C(=O)N[C@H]3C(=O)N[C@H](C(=O)N[C@H](C(=O)O)c4cc(O)cc(O)c4-c4cc3ccc4O)[C@H](O)c3ccc(c(Cl)c3)Oc3cc2cc(c3O[C@@H]2O[C@H](CO)[C@@H](O)[C@H](O)[C@H]2O[C@H]2C[C@](C)(N)[C@H](O)[C@H](C)O2)Oc2ccc(cc2Cl)[C@H]1O [vancomycin]
- susceptibility of E. faecalis 31970 based on metabolic imaging method ([4]; 1 h): susceptible
- intensity of C-D signal for individual VSE relative to control group ([4]; 20 μg/mL vancomycin, 30 minutes in glucose-d7 medium, fraction of control): about ⅓
- C-D signal in SRS imaging versus control ([4]; 1 h): significant reduction
- MIC ([4]; Enterococcus faecalis, 1 h, read-out: MIC determined by metabolic imaging method): 2 µg/mL
- intensity of C-D component versus control ([4]; VSE, 1 μg/mL vancomycin): did not reduce
- intensity of C-D component versus control ([4]; VSE, 2 μg/mL or higher vancomycin): significantly reduced
- normalized SRS spectra, signal intensity in C-D region versus control ([4]; VSE, 20 μg/mL vancomycin, 30 minutes): reduced the signal intensity
- intensity of C-D component after MCR versus control ([4]; VSE, 20 μg/ml, 0.5, 1 and 3 h (p 2.2×10^−13, 2.0×10^−11, 3.9×10^−15)): significantly reduced
- MIC ([5]; Enterococcus faecalis): 1 µg/mL (≈ 0.69 µM)
- MIC [9]: > 100 µg/mL
- normalized SRS spectra, signal intensity in C-D region with and without treatment ([10]; 20 μg/mL vancomycin, 30 minutes): remain the same
- intensity of C-D component after MCR versus control ([10]; 0.5 to 3 h): did not significantly reduce
- intensity of C-D component after MCR versus control ([10]; 3 h (p-value 5×10^−4)): higher intensity of C-D component than the control group
